Consider four substances from patent publication US12411143B2, “CD146 and uses thereof as a biomarker and as a therapeutic target in the diagnosis and treatment of fibrosis” (ASSISTANCE PUBLIQUE HÔPITAUX DE MARSEILLE, priority 2018, dated 2025).

Holding throughout (type): cell-based, human
The subject of data set [1] is ECFC. Nature of the data set: ECFC proliferation assay. The note with it: siRNA or plasmid transfection, in the presence of GM6001 10 μM. On the procedure:
A: Effect of siRNA targeting I10-sCD146 and I5-13-sCD146 on proliferation of ECFC. Experiments were performed in the presence of GM6001 10 μM. Results are mean values of 4 different experiments and representative pictures of the cells in one experiment are given.
B: Effect of over-expression of I10-sCD146 (p-I10-sCD146), I5-13-sCD146 (p-I5-13-sCD146) and shed sCD146 (p-shed sCD146) realized by plasmid transfection on proliferation of ECFC. Experiments were performed in the presence of GM6001 10 μM.
C: Effect of recombinant proteins I10-sCD146, I5-13-sCD146 and shed sCD146 50 ng/ml on the proliferation of ECFC. Experiments were performed in the presence of GM6001 10 μM. Results are mean values of 4 different experiments.
Experiments were performed as previously described (Stalin et al., 2013).

Data set [2] concerns ECFC. Nature of the data set: Permeability of ECFC monolayer to dextran-FITC. The note with it: siRNA or plasmid transfection. On the procedure:
D: ECFC were transfected with siRNA targeting ADAM10 or Tace and with a control siRNA (C). The permeability of the ECFC monolayer grown on semi-permeable filters was determined using dextran-FITC. Results are the mean values+/−SEM of 3 experiments.
E: ECFC were transfected with plasmid vectors encoding ADAM10 (p-ADAM10) or Tace (p-Tace) and with a control plasmid vector (C). The permeability of the ECFC monolayer grown on semi-permeable filters was determined using dextran-FITC. Results are the mean values+/−SEM of 3 experiments. *: P<0.05, **: P<0.01, ***: P<0.001, experimental vs Control.
ECFC were seeded at 60,000 cells per well on membrane inserts (porosity 1 μm) of a 24-multiwell double chamber system (Multiwell Insert System, BD Biosciences, Le Pont de Claix, France) after siRNA transfection or not. Confluent endothelial monolayers were then incubated for 24 h in EGM-2 medium in the presence or absence of the different forms of sCD146. The FITC-dextran (sigma) was added at the apical surface of the cells and was allowed to migrate for 1.5 h at 37° C. Basolateral FITC-dextran was then measured using a Cytofluor Series 4000 Fluorescence (PerSeptiveBiosystems, Framingham, MA).

Data set [3] relates to ECFC. Nature of the data set: Soluble CD146 secretion in ECFC (ELISA). Particulars: for reduction of sCD146 secretion by siRNA: 24 h TNF 20 ng/ml. On the procedure:
A: Secretion of soluble CD146 (CD146s) was determined in ECFC in response to 24 h of treatment with 20 ng/ml TNF, 20 ng/ml VEGF, 5 ng/ml TGFb, 50 ng/ml netrin, 50 ng/ml Wnt5a and 50 ng/ml Wnt3a.
B: The effect of the pan-inhibitor GM6001 was tested on CD146s secretion in ECFC cells by ELISA. Experiments were performed in control conditions and after treatment with 20 ng/ml TNF for 24 h. […] A dose-dependence of GM6001 effect was performed between 1 and 50 μM. Results are the mean values+/−SEM of 5 experiments.
C: The effect of furin convertase inhibitor (IF) was tested at 50 μMon CD146s secretion in control condition and after treatment with TNF 20 ng/ml for 24 h. Results are the mean values+/−SEM of 3 experiments.
D: Effect of TIMP-1, -2 and -3 (1 μg/ml) was tested on CD146s secretion in control condition and after treatment with 20 ng/ml TNF. Results are the mean values+/−SEM of 3 experiments. *: P<0.05, **: P<0.01, ***: P<0.001, experimental vs Control
A: ECFC were transfected with siRNA targeting the short (shCD146) or the long (IgCD146) isoforms of CD146 and with a control siRNA (C). Soluble CD146 (sCD146) secretion was determined. Results are the mean values+/−SEM of 4 different experiments.
B: ECFC were transfected with siRNA targeting MT1-MMP, MMP2, ADAM10 or Tace and with a control siRNA (C). Soluble CD146 (sCD146) secretion was determined. In one condition, cells were treated with GM6001 10 μM. Results are the mean values+/−SEM of 5 different experiments.
A: ECFC were transfected with siRNA targeting the short (shCD146) or the long (IgCD146) isoforms of CD146 and with a control siRNA (C) and soluble CD146 (sCD146) secretion was determined in basal condition and in cells treated for 24 h with TNF 20 ng/ml. Results are the mean values +/−SEM of 5 different experiments.
B: ECFC treated for 24 h with 20 ng/ml TNF were transfected with siRNA targeting Tace, ADAM10, MT1-MMP and with a control siRNA (C) and soluble CD146 (sCD146) secretion was determined. Results are the mean values +/−SEM of 3 different experiments.
Endothelial Colony Forming Cells (ECFC) were cultured in endothelial EGM-2 MV medium as previously described (Delorme B et al., 2005).
SiRNA designed to silence the different isoforms of sCD146 were generated. A control siRNA was also used in each experiment. siRNAs were introduced in endothelial cells using the Silence magmagnetofection kit as described by the manufacturer (OZ Biosciences).
Shed sCD146 was assayed using the commercial ELISA assay (CY-QUANT sCD146, Biocytex, Marseille). Plates were coated with specific mouse monoclonal anti-human CD146 F(ab′)2 fragments. 10 μL of sera was added to each well and incubated for 30 minutes at room temperature. After incubation, the plates were washed five times, followed by incubation with a specific HRP-coupled monoclonal antibody (7A4-HRP, 1 mg/ml, Biocytex, Marseille, France) at a 1:1 000 dilution in a specific diluent for 30 minutes at room temperature and then washed five times. 200 μL of tetramethylbenzidine (TMB) substrate was incubated for approximately 20 minutes at room temperature. The colorimetric reaction was then stopped by the addition of 100 μL of an acid solution. The intensity of the signal was directly related to the concentration of sCD146 initially contained in the sample. For detecting the two spliced isoforms of sCD146 (I5-13-sCD146 and I10-sCD146), the same immunoassay was used (Biocytex). The protocol was modified only for the second antibody (detection antibody) that was replaced by the anti-I5-13-sCD146 or anti-I10-sCD146 antibodies coupled to HRP.
Background: ELISA stands for enzyme-linked immunosorbent assay.

As for “siRNA targeting I5-13-sCD146: siRNA targeting I5-13-sCD146; sens UGGACAUCUAGACGGCUGCUCGUUU (antisense AAACGAGCAGCCGUCUAGAUGUCCA; chemistry not given here)”, the “proliferation of ECFC” value in the data set on ECFC [1] was “inhibited the proliferation of ECFC”.

Consider “Tace siRNA: siRNA targeting Tace; sens 5′CAGGAUUUAAAGGUUAUGGAA (antisense UUCCAUAAACCUUUAAAUCCUG; listed as RNA, chemistry not given here)”, for which the “permeability of ECFC monolayer to dextran” value in the data set on ECFC [2] is on record as “did not modify it”. For the same substance, the “reduction of sCD146 secretion by siRNA” value in the data set with ECFC [3] was 25%.

For “siRNA targeting I10-sCD146: siRNA targeting I10-sCD146; sens CCCUCCCUCUGGGUAGAGACCAGGU (antisense ACCUGGUCUCUACCCAGAGGGAGGG; chemistry not given here)”, in the data set with ECFC [1], the “proliferation of ECFC” value was “inhibited the proliferation of ECFC”.

In the case of “ADAM10 siRNA: siRNA targeting ADAM10; sens 5′GAAUGGUAGAACAAGGUGAtt (sense GAAUGGUAGAACAAGGUGATT; antisense UCACCUUGUUCUACCAUUCCA; chemistry not given here)”, the “permeability of ECFC monolayer to dextran” value in the data set with ECFC [2] was “decreased”. Also, in the data set with ECFC [3], the “reduction of sCD146 secretion by siRNA” value amounted to 60%. The “effect of siRNA on sCD146 secretion” value in the data set on ECFC [3] (control condition) is on record as “able to inhibit sCD146 secretion”.
